{
  "source": "ChEMBL document CHEMBL1201862",
  "about": "“PubChem BioAssay data set” (2004)",
  "test_in_all_cases": "NCI-60 cell line screen, 48 h",
  "key": {"NCI-H522": {"test_system": "NCI-H522"}, "TK-10": {"test_system": "TK-10"}, "HCC 2998": {"test_system": "HCC 2998"}, "SNB-78": {"test_system": "SNB-78"}, "OVCAR-8": {"test_system": "OVCAR-8"}, "RPMI-8226": {"test_system": "RPMI-8226"}, "SK-OV-3": {"test_system": "SK-OV-3"}, "M19-MEL": {"test_system": "M19-MEL"}, "OVCAR-3": {"test_system": "OVCAR-3"}, "UO-31": {"test_system": "UO-31"}, "CAKI-1": {"test_system": "CAKI-1"}, "KM-20L2": {"test_system": "KM-20L2"}, "IGROV-1": {"test_system": "IGROV-1"}, "COLO 205": {"test_system": "COLO 205"}, "HCT-15": {"test_system": "HCT-15"}, "HCT-116": {"test_system": "HCT-116"}, "NCI-H226": {"test_system": "NCI-H226"}, "SN12C": {"test_system": "SN12C"}, "SK-MEL-2": {"test_system": "SK-MEL-2"}, "M14": {"test_system": "M14"}, "DMS-114": {"test_system": "DMS-114"}, "SF-539": {"test_system": "SF-539"}, "XF498": {"test_system": "XF498"}, "UACC-62": {"test_system": "UACC-62"}, "NCI-H23": {"test_system": "NCI-H23"}, "UACC-257": {"test_system": "UACC-257"}, "KM12": {"test_system": "KM12"}, "HOP-62": {"test_system": "HOP-62"}, "MOLT-4": {"test_system": "MOLT-4"}, "SK-MEL-28": {"test_system": "SK-MEL-28"}, "786-0": {"test_system": "786-0"}, "EKVX": {"test_system": "EKVX"}, "CCRF-CEM": {"test_system": "CCRF-CEM"}, "SR": {"test_system": "SR"}, "SF-295": {"test_system": "SF-295"}, "SW-620": {"test_system": "SW-620"}, "SK-MEL-5": {"test_system": "SK-MEL-5"}, "SNB-19": {"test_system": "SNB-19"}, "ACHN": {"test_system": "ACHN"}, "K562": {"test_system": "K562"}, "OVCAR-5": {"test_system": "OVCAR-5"}, "OVCAR-4": {"test_system": "OVCAR-4"}, "LOX IMVI": {"test_system": "LOX IMVI"}, "A549": {"test_system": "A549"}, "HL-60": {"test_system": "HL-60"}, "HOP-92": {"test_system": "HOP-92"}, "NCI-H460": {"test_system": "NCI-H460"}, "DMS-273": {"test_system": "DMS-273"}, "HT-29": {"test_system": "HT-29"}, "LXFL 529": {"test_system": "LXFL 529"}, "Malme-3M": {"test_system": "Malme-3M"}, "RXF 393": {"test_system": "RXF 393"}, "SNB-75": {"test_system": "SNB-75"}, "SF-268": {"test_system": "SF-268"}},
  "note": "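Method: 48-hour compound exposure of cells in 96-well plates, five concentrations, linear interpolation of endpoints. At the GI50, growth is halved.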 The source made the active and inactive calls. No stated cut-off is given here; in the data, active = GI50 up to about 1.1 µM and inactive = higher.",
  "data": [
    {"smiles": "COc1cc(/C=C(\\C#N)C(=O)c2ccccc2)ccc1OCc1ccccc1", "values": [
      {"measurement": "GI50", "setting": "NCI-H522", "result": "> 100 µM (inactive)"},
      {"measurement": "GI50", "setting": "TK-10", "result": "> 100 µM (inactive)"},
      {"measurement": "GI50", "setting": "HCC 2998", "result": "> 100 µM (inactive)"},
      {"measurement": "GI50", "setting": "SNB-78", "result": "> 100 µM (inactive)"},
      {"measurement": "GI50", "setting": "OVCAR-8", "result": "> 100 µM (inactive)"},
      {"measurement": "GI50", "setting": "RPMI-8226", "result": "> 100 µM (inactive)"},
      {"measurement": "GI50", "setting": "SK-OV-3", "result": "> 100 µM (inactive)"},
      {"measurement": "GI50", "setting": "M19-MEL", "result": "> 100 µM (inactive)"},
      {"measurement": "GI50", "setting": "OVCAR-3", "result": "> 100 µM (inactive)"},
      {"measurement": "GI50", "setting": "UO-31", "result": "> 100 µM (inactive)"},
      {"measurement": "GI50", "setting": "CAKI-1", "result": "> 100 µM (inactive)"},
      {"measurement": "GI50", "setting": "KM-20L2", "result": "> 100 µM (inactive)"},
      {"measurement": "GI50", "setting": "IGROV-1", "result": "> 100 µM (inactive)"},
      {"measurement": "GI50", "setting": "COLO 205", "result": "> 100 µM (inactive)"},
      {"measurement": "GI50", "setting": "HCT-15", "result": "> 100", "unit": "µM"},
      {"measurement": "GI50", "setting": "HCT-116", "result": "> 100 µM (inactive)"},
      {"measurement": "GI50", "setting": "NCI-H226", "result": "> 100 µM (inactive)"},
      {"measurement": "GI50", "setting": "SN12C", "result": "> 100 µM (inactive)"},
      {"measurement": "GI50", "setting": "SK-MEL-2", "result": "> 100 µM (inactive)"},
      {"measurement": "GI50", "setting": "M14", "result": "> 100 µM (inactive)"},
      {"measurement": "GI50", "setting": "DMS-114", "result": "> 100 µM (inactive)"},
      {"measurement": "GI50", "setting": "SF-539", "result": "> 100 µM (inactive)"},
      {"measurement": "GI50", "setting": "XF498", "result": "> 100 µM (inactive)"},
      {"measurement": "GI50", "setting": "UACC-62", "result": "> 100 µM (inactive)"},
      {"measurement": "GI50", "setting": "NCI-H23", "result": "> 100 µM (inactive)"},
      {"measurement": "GI50", "setting": "UACC-257", "result": "> 100 µM (inactive)"},
      {"measurement": "GI50", "setting": "KM12", "result": "> 100 µM (inactive)"},
      {"measurement": "GI50", "setting": "HOP-62", "result": "> 100 µM (inactive)"},
      {"measurement": "GI50", "setting": "MOLT-4", "result": "> 100 µM (inactive)"},
      {"measurement": "GI50", "setting": "SK-MEL-28", "result": "> 100 µM (inactive)"},
      {"measurement": "GI50", "setting": "786-0", "result": "> 100 µM (inactive)"},
      {"measurement": "GI50", "setting": "EKVX", "result": "> 100 µM (inactive)"},
      {"measurement": "GI50", "setting": "CCRF-CEM", "result": "> 100 µM (inactive)"},
      {"measurement": "GI50", "setting": "SR", "result": "> 100 µM (inactive)"},
      {"measurement": "GI50", "setting": "SF-295", "result": "> 100 µM (inactive)"},
      {"measurement": "GI50", "setting": "SW-620", "result": "> 100 µM (inactive)"},
      {"measurement": "GI50", "setting": "SK-MEL-5", "result": "> 100 µM (inactive)"},
      {"measurement": "GI50", "setting": "SNB-19", "result": "> 100 µM (inactive)"},
      {"measurement": "GI50", "setting": "ACHN", "result": "> 100 µM (inactive)"},
      {"measurement": "GI50", "setting": "K562", "result": "> 100 µM (inactive)"},
      {"measurement": "GI50", "setting": "OVCAR-5", "result": "> 100 µM (inactive)"},
      {"measurement": "GI50", "setting": "OVCAR-4", "result": "> 100 µM (inactive)"},
      {"measurement": "GI50", "setting": "LOX IMVI", "result": "> 100 µM (inactive)"},
      {"measurement": "GI50", "setting": "A549", "result": "> 100 µM (inactive)"},
      {"measurement": "GI50", "setting": "HL-60", "result": "> 100 µM (inactive)"}
    ]},
    {"smiles": "COc1cc(C2c3cc4c(cc3[C@@H](Nc3ccc(C(=O)O)cc3)C3COC(=O)[C@H]23)OCO4)cc(OC)c1O", "note": "(stereo partly specified)", "values": [
      {"measurement": "GI50", "setting": "HOP-92", "result": "4.81 µM (inactive)"},
      {"measurement": "GI50", "setting": "NCI-H460", "result": "2.01 µM (inactive)"},
      {"measurement": "GI50", "setting": "DMS-273", "result": "5.65 µM (inactive)"},
      {"measurement": "GI50", "setting": "HT-29", "result": "11.1 µM (inactive)"},
      {"measurement": "GI50", "setting": "LXFL 529", "result": "5.82 µM (inactive)"},
      {"measurement": "GI50", "setting": "SNB-78", "result": "5.78 µM (inactive)"},
      {"measurement": "GI50", "setting": "Malme-3M", "result": "8.55 µM (inactive)"},
      {"measurement": "GI50", "setting": "M19-MEL", "result": "10 µM (inactive)"},
      {"measurement": "GI50", "setting": "OVCAR-3", "result": "14.7 µM (inactive)"},
      {"measurement": "GI50", "setting": "UO-31", "result": "> 17.5 µM (inactive)"},
      {"measurement": "GI50", "setting": "CAKI-1", "result": "5.93 µM (inactive)"},
      {"measurement": "GI50", "setting": "HCT-15", "result": 7.5, "unit": "µM"},
      {"measurement": "GI50", "setting": "HCT-116", "result": "14.5 µM (inactive)"},
      {"measurement": "GI50", "setting": "NCI-H226", "result": "4.47 µM (inactive)"},
      {"measurement": "GI50", "setting": "RXF 393", "result": "10.5 µM (inactive)"},
      {"measurement": "GI50", "setting": "SN12C", "result": "> 17.5 µM (inactive)"},
      {"measurement": "GI50", "setting": "SK-MEL-2", "result": "16.6 µM (inactive)"},
      {"measurement": "GI50", "setting": "M14", "result": "12.6 µM (inactive)"},
      {"measurement": "GI50", "setting": "SF-539", "result": "4.7 µM (inactive)"},
      {"measurement": "GI50", "setting": "SNB-75", "result": "6.58 µM (inactive)"},
      {"measurement": "GI50", "setting": "UACC-62", "result": "9.82 µM (inactive)"},
      {"measurement": "GI50", "setting": "NCI-H23", "result": "7.74 µM (inactive)"},
      {"measurement": "GI50", "setting": "UACC-257", "result": "> 17.5 µM (inactive)"},
      {"measurement": "GI50", "setting": "HOP-62", "result": "6.11 µM (inactive)"},
      {"measurement": "GI50", "setting": "MOLT-4", "result": "0.546 µM (active)"},
      {"measurement": "GI50", "setting": "SK-MEL-28", "result": "> 17.5 µM (inactive)"},
      {"measurement": "GI50", "setting": "EKVX", "result": "> 17.5 µM (inactive)"},
      {"measurement": "GI50", "setting": "CCRF-CEM", "result": "2.56 µM (inactive)"},
      {"measurement": "GI50", "setting": "SF-268", "result": "10.8 µM (inactive)"},
      {"measurement": "GI50", "setting": "SF-295", "result": "8.85 µM (inactive)"},
      {"measurement": "GI50", "setting": "SK-MEL-5", "result": "9.77 µM (inactive)"},
      {"measurement": "GI50", "setting": "SNB-19", "result": "6.11 µM (inactive)"},
      {"measurement": "GI50", "setting": "OVCAR-4", "result": "11 µM (inactive)"},
      {"measurement": "GI50", "setting": "LOX IMVI", "result": "2.42 µM (inactive)"},
      {"measurement": "GI50", "setting": "A549", "result": "> 17.5 µM (inactive)"},
      {"measurement": "GI50", "setting": "HL-60", "result": "3.24 µM (inactive)"}
    ]}
  ]
}
